Assay results reported in patent JP2009132645A, “アシル化ハイドロキノン配糖体及びそれを含有する皮膚外用剤” (Pola Chemical Industries Inc, priority 2007, dated 2009).

Experiment: Cytotoxicity in normal human epidermal melanocytes (trypan blue)
Format: cell-based
Settings: 2 days culture, 0.5% trypan blue, concentration not given, read-out: cytotoxicity (judgement by cell death rate)

## CCCCCCCCCCC(=O)OC[C@H]1O[C@@H](Oc2ccc(O)cc2)[C@H](O)[C@@H](O)[C@@H]1O [比較化合物1, 6−O−ウンデカノイルアルブチン]
  cytotoxicity at 48 h: > 50%
